Source: patent US20130072427A1, “GPR 119 MODULATORS” (Pfizer Inc., priority 2009, published 2013)

Biological target: T1, human GPR119 (Homo sapiens, UniProt Q8TDV5)
T1 construct: host or cells: HEK293-CRE beta-lactamase cells
T1 sequence (Q8TDV5 1-335): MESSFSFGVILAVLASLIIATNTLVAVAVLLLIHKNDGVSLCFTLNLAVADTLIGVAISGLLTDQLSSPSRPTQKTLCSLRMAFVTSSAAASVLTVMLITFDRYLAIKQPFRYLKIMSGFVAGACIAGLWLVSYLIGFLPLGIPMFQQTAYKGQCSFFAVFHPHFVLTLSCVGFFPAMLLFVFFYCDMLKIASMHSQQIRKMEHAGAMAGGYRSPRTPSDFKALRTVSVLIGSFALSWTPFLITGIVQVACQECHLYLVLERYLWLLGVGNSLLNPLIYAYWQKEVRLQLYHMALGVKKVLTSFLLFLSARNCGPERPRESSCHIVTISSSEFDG
Assay: Beta-lactamase functional assay (hGPR119 HEK293-CRE beta-lactamase reporter)
Format: cell-based
Details: one line per run; for EC50: hGPR119 HEK293-CRE beta-lactamase cells, 16 hours incubation, read-out: Human B-lactamase Functional EC50; for Emax: percent of maximal activity relative to standard GPR119 agonist (WO2005121121) at 10 microM, read-out: Intrinsic Activity* (%) (B-lactamase)
Method: The assay for GPR119 agonists utilizes a cell-based (hGPR119 HEK293-CRE beta-lactamase) reporter construct where agonist activation of human GPR119 is coupled to beta-lactamase production via a cyclic AMP response element (CRE). GPR119 activity is then measured utilizing a FRET-enabled beta-lactamase substrate, CCF4-AM (Live Blazer FRET-B/G Loading kit, Invitrogen cat #K1027). Specifically, hGPR119-HEK-CRE-beta-lactamase cells (Invitrogen 2.5×10^7/mL) were removed from liquid nitrogen storage, and diluted in plating medium (Dulbecco's modified Eagle medium high glucose (DMEM; Gibco Cat #11995-065), 10% heat inactivated fetal bovine serum (HIFBS; Sigma Cat #F4135), 1×MEM Nonessential amino acids (Gibco Cat #15630-080), 25 mM HEPES pH 7.0 (Gibco Cat #15630-080), 200 nM potassium clavulanate (Sigma Cat #P3494). The cell concentration was adjusted using cell plating medium and 50 microL of this cell suspension ([…]) was added into each well of a black, clear bottom, poly-d-lysine coated 384-well plate (Greiner Bio-One cat #781946) and incubated at 37 degrees Celsius in a humidified environment containing 5% carbon dioxide. After 4 hours the plating medium was removed and replaced with 40 microL of assay medium (Assay medium is plating medium without potassium clavulanate and HIFBS). Varying concentrations of each compound to be tested was then added in a volume of 10 microL (final DMSO≦0.5%) and the cells were incubated for 16 hours at 37 degrees Celsius in a humidified environment containing 5% carbon dioxide. Plates were removed from the incubator and allowed to equilibrate to room temperature for approximately 15 minutes. 10 microL of 6×CCF4/AM working dye solution (prepared according to instructions in the Live Blazer FRET-B/G Loading kit, Invitrogen cat #K1027) was added per well and incubated at room temperature for 2 hours in the dark. Fluorescence was measured on an EnVision fluorimetric plate reader, excitation 405 nm, emission 460 nm/535 nm. EC50 determinations were made from agonist-response curves analyzed with a curve fitting program using a 4-parameter logistic dose-response equation.

EC50 [µM] | Emax [%] | SMILES
2.05 | 107 | CC(C)OC(=O)N1CCC(Oc2ncnc(N3Cc4cnn(C)c4C3)c2C#N)CC1 [Example 3, Isopropyyl 4-{[5-cyano-6-(1-methyl-4,6-dihydropyrrolo[3,4-c]pyrazol-5(1H)-yl)pyrimidin-4-yl]oxy}piperidine-1-carboxylate]
0.662 | 103 | Cc1c(OC2CCN(C(=O)OC(C)C)CC2)ncnc1N1Cc2cnn(C)c2C1 [Example 2, Isopropyyl 4-{[5-methyl-6-(1-methyl-4,6-dihydropyrrolo[3,4-c]pyrazol-5(1H)-yl)pyrimidin-4-yl]oxy}piperidine-1-carboxylate]
